Structures are written as SMILES.

In general, IC50 refers to the concentration that inhibits the measured activity by half.

Test [1] addresses D-1 receptor. In words: D-1 receptor in carp retina (in vitro). The following applies: concentration of agonist required to inhibit the biochemical response by 50%, read-out: Fish retina D-1 receptor IC50.
The target in test [2] is D-2 receptor (Rattus norvegicus, UniProt P61169).
Chain of D-2 receptor (P61169 whole entry): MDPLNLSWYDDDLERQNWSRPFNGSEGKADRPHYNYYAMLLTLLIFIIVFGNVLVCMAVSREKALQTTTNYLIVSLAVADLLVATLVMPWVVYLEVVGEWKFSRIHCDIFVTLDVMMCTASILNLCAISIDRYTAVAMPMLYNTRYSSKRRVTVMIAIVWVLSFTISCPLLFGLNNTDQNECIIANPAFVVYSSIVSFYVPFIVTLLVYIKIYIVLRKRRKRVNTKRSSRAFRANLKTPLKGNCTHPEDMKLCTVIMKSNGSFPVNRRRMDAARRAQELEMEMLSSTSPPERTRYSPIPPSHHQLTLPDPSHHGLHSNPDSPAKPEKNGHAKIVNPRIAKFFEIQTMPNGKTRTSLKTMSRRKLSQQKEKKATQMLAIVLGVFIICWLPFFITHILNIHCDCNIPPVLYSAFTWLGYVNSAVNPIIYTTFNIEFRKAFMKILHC

With `CN1CCc2cccc3c2[C@H]1Cc1ccc(O)c(O)c1-3` [Apomorphine, reference compound], the IC50 in test [1] stood at 1500 nM.
Take `CCCN(CCc1ccccc1)C1CCc2c(O)cccc2C1` (stereo not shown) [PPHT, 2-(N-phenylethyl-N-propylamino)-5-hydroxytetralin]: the IC50 in test [1] amounted to 3700 nM. Further, the “times more potent than apomorphine at the D-2 receptor” value in test [2] (relative to apomorphine) is “approximately 40 times”. Also, the “times more potent than dopamine at the D-2 receptor” value in test [2] (relative to dopamine) is recorded as 250 times.

The record behind these values is patent US4465692A (Nelson Research & Development Company, priority 1982, dated 1984).
